Measured values from patent publication US8143227B2, “Azithromycin for treatment of skin disorders” (priority 2008, dated 2012).

How the values were obtained:
[1] = Gastrointestinal side effects monitoring; format: in vivo, human; details: 40, 80, or 120 mg/day; 42 days treatment plus 4 weeks after cessation
Description: The subjects of Example 1 were monitored for the presence of gastrointestinal adverse effects during the six weeks (42 days) of treatment with the daily low-dose azithromycin of the invention and for an additional 4 weeks (total of 70 days) following cessation of treatment.

[2] = system: moderate to severe facial acne vulgaris; assay: Additional low dosage regimens, lesion counts; format: in vivo, human
Method: (§1) Five male subjects and five female subjects with moderate to severe facial acne vulgaris, having a mean age of 19.6 years, were treated either with 25 mg of oral azithromycin daily or with 80 mg of oral azithromycin every other day. Each of the ten subjects had acne nodules. The male subjects received the 25 mg per day regimen and the female subjects received the 80 mg every other day regimen. Treatment was continued for a duration of 6 weeks. The numbers of facial inflammatory lesions: papules, pustules, and nodules, and non-inflammatory lesions: open and closed comedones, were counted at the beginning of treatment and again after 3 weeks of treatment and after 6 weeks of treatment. Additionally, nodules were counted independently at each of these visits. Additionally, during the treatment study, each subject reported the occurrence of any adverse effects. The results of this study for the 25 mg/day regimen are shown in Table 7 and for the 80 mg every other day regiment in Table 8. In these tables, the numbers represent the mean number of lesions in the four subjects of each group. The % decrease from Day 0 was calculated as the mean of the differences for each of the parameters (inflammatory lesions, non-inflammatory lesion and nodules) for each individual subject on Day 21 and Day 42.

[3] = Additional low dosage regimens, adverse effects; format: in vivo, human
Method: as §1, with “The” for “Five male subjects and five female subjects with moderate to severe facial acne vulgaris, having a mean age of 19.6 years, were treated either with 25 mg of oral azithromycin daily or with 80 mg of oral azithromycin every other day. Each of the ten subjects had acne nodules. The male subjects received the 25 mg per day regimen and the female subjects received the 80 mg every other day regimen. Treatment was continued for a duration of 6 weeks. The”

Staphylococcus aureus = details: Neu 1991; relative to P. acnes; cited from earlier work
[4] = 25 mg/day for 6 weeks, male subjects, Day 0 (beginning of treatment)
[5] = 25 mg/day for 6 weeks, male subjects, Day 21
[6] = 25 mg/day for 6 weeks, male subjects, Day 42
[7] = 80 mg every other day for 6 weeks, female subjects, Day 0 (beginning of treatment)
[8] = 80 mg every other day for 6 weeks, female subjects, Day 21
[9] = 80 mg every other day for 6 weeks, female subjects, Day 42

SMILES: CC[C@H]1OC(=O)[C@H](C)[C@@H](O[C@H]2C[C@@](C)(OC)[C@@H](O)[C@H](C)O2)[C@H](C)[C@@H](O[C@@H]2O[C@H](C)C[C@H](N(C)C)[C@H]2O)[C@](C)(O)C[C@@H](C)CN(C)[C@H](C)[C@@H](O)[C@]1(C)O [Azithromycin, 9-deoxo-9a-aza-9a-methyl-9a-homoerythromycin A]
- gastrointestinal side effects [1]: no gastrointestinal side effects were reported
- effectiveness in treating skin disorders such as acne in adults ([2]; 25 mg per day, daily): effective
- Inflammatory lesions (mean number) [2, 4]: 37.4
- Nodules (mean number) [2, 4]: 3.0
- Non-inflammatory lesions (mean number) [2, 4]: 12.6
- Inflammatory lesions % Decrease from Day 0 [2, 5]: 38.0%
- Inflammatory lesions (mean number) [2, 5]: 22.8
- Nodules % Decrease from Day 0 [2, 5]: 45.0%
- Nodules (mean number) [2, 5]: 1.6
- Non-inflammatory lesions % Decrease from Day 0 [2, 5]: 18.8%
- Non-inflammatory lesions (mean number) [2, 5]: 10.2
- Inflammatory lesions % Decrease from Day 0 [2, 6]: 41.0%
- Inflammatory lesions (mean number) [2, 6]: 22.0
- Nodules % Decrease from Day 0 [2, 6]: 58.3%
- Nodules (mean number) [2, 6]: 1.2
- Non-inflammatory lesions % Decrease from Day 0 [2, 6]: 34.3%
- Non-inflammatory lesions (mean number) [2, 6]: 8.4
- effectiveness in treating skin disorders such as acne ([2]; 80 mg every other day): effective
- Inflammatory lesions (mean number) [2, 7]: 24.4
- Nodules (mean number) [2, 7]: 3.8
- Non-inflammatory lesions (mean number) [2, 7]: 48.6
- Inflammatory lesions % Decrease from Day 0 [2, 8]: 34.0%
- Inflammatory lesions (mean number) [2, 8]: 16.0
- Nodules % Decrease from Day 0 [2, 8]: 76.0%
- Nodules (mean number) [2, 8]: 1.0
- Non-inflammatory lesions % Decrease from Day 0 [2, 8]: 18.5%
- Non-inflammatory lesions (mean number) [2, 8]: 41.2
- Inflammatory lesions % Decrease from Day 0 [2, 9]: 15.5%
- Inflammatory lesions (mean number) [2, 9]: 20.4
- Nodules % Decrease from Day 0 [2, 9]: 58.0%
- Nodules (mean number) [2, 9]: 1.8
- Non-inflammatory lesions % Decrease from Day 0 [2, 9]: 30.1%
- Non-inflammatory lesions (mean number) [2, 9]: 31.6
- adverse effects reported ([3]; 25 mg per day for 6 weeks, migraine headache on day 21, deemed not related): only one adverse effect was reported
- typical antibiotic side effects (abdominal cramping, nausea, vomiting, diarrhea or vaginitis) ([3]; 25 mg per day or 80 mg every other day for 6 weeks): no typical antibiotic side effects reported
- adverse effects reported ([3]; 80 mg every other day for 6 weeks): no adverse effects were reported
- MIC against Staphylococcus aureus (Staphylococcus aureus): higher than that for P. acnes
